“And” between values parts separate entries of the source, which are not always exact repeats. Equal entries are not always repeated.
Assays:
[1] = tested on: lipase; test: Lipase activity of pancrelipase after BPL treatment, freezing and lyophilization (USP 31 method); assay type: biochemical; settings: for Loss of Lipase Activity: pancrelipase, freezing, lyophilization, precision 5-10%
Method: Enzymatic activity for the enzymes of a PEP (e.g., proteases, lipases, and amylases) can be determined, for example, by using the United States Pharmacopeia (USP) monographed methods (The United States Pharmacopeia and the National Formulary (USP 31/NF 26). 2008. Rockville (MD): United States Pharmacopeial Convention, Inc.).
The samples c-d from all the experiments were tested for lipase, protease, and amylase enzymatic activity using USP 31 monographed methods. See Example 11 and Table 11.
Table 11 presents the lipase, protease, and amylase activity for aliquots of the pancrelipase after BPL treatment for 30 min at 25° C. followed by freezing and lyophilization (same treatment as for samples in Example 10).

[2] = tested on: PPV; test: Inactivation of spiked PPV in pancrelipase (PEP) by BPL, PPV titered by dilution method (Example 1); assay type: cell-based, porcine parvovirus (PPV); settings: 48 h, 20° C.; for Detected PPV Titer: 0*=below detection limit of 10^3 FFID50/g
Method: For example, two preparations can be tested for PPV or another virus on one 96-well plate, with the positive controls incubated on another parallel plate. For PPV the samples can be serially diluted (for example, 1:4 in each step for a total of 8 dilutions) in cell culture medium prior to application and incubated with cell cultures for at least 5 days at 37° C. in 5% CO2. After sample removal and the fixation of the cells by paraformaldehyde, the presence of PPV (or other) virus infection is monitored in each well by an anti-PPV antibody using a standard immunofluorescent assay. The number of wells that contain positively stained cells are recorded in a table. Fluorescence Focus Infectious Doses (FFID50) are calculated according to the Karber formula: […]
All data are recalculated for 1-gram dry PEP, e.g., pancrelipase, sample after the consideration of processed sample volumes and dilutions. In certain embodiments, the assay is repeated several times using six parallel wells to quantify the level of infectious viruses.
Pancrelipase powders from 2 different lots were each dissolved in 100 mM Tris, pH=8.3, at a concentration of 100 mg/ml. Two ml non-purified PPV viral stock (prepared using standard protocols (Arella et al., Physicichemical properties, production, and purification of parvoviruses. 1990, In Tijssen, P. (ed.), CRC handbook of parvoviruses. Boca Raton, Fla.: CRC Press, 11-30)) were added to 38 ml of the pancrelipase solution. The virus was mixed with the PEP using slow shaking at room temperature for one day. Aliquots were taken from the PPV-spiked pancrelipase stocks and each was incubated with different concentrations of BPL (available from Sigma-Aldrich, St. Louis, Mo.) (except the control) for 48 hours at room temperature (20° C.). The level of viral inactivation was measured by the titration of PPV infectivity using serial dilutions of 1,000 times or more since the titer of spiked virus was high. Determination of the FFID50 was performed using the fluorescence assay as described in the PPV FFID-infectivity assay of U.S. Patent Publication No. 2009/0226414.

[3] = tested on: PPV; test: Kinetics of PPV inactivation in PEP samples with 0.4% BPL at 4° C. (Example 7); assay type: cell-based, porcine parvovirus (PPV); settings: PEP conc. 100 mg/mL
Method: Samples prepared in the same way as described in Example 1 were treated at 4° C. in an aqueous media (i.e. mixture of water and isopropyl alcohol).

[4] = tested on: PPV; test: Inactivation of PPV by BPL (30 min, 25° C.), BPL then inactivated with sodium thiosulfate (Example 9); assay type: cell-based, porcine parvovirus (PPV); settings: thiosulfate quench
Method: 4.5 g pancrelipase (PEP) powder was dissolved in 44 ml ice cold 100 mM Tris (pH=8.3) by frequently mixing a 50-ml plastic tube that was kept on ice most of the time except when shaking. The dissolved sample was spiked with 1 ml (2×0.5 ml) PPV stock (prepared at the Institut National de la Recherche Scientifique, Québec, Canada using standard protocols (Arella et al., Physicichemical properties, production, and purification of parvoviruses. 1990, In Tijssen, P. (ed.), CRC handbook of parvoviruses. Boca Raton, Fla.: CRC Press, 11-30)) 10^7 FFID50/ml; see Example 8 and Table 8) and was mixed for another 10 minutes.
Three aliquots of the dissolved pancrelipase were transferred into tubes (A-C) and kept on ice while (A) no BPL—the control), (B) (0.4 vol % BPL), or (C) (0.8 vol % BPL) was added to them. After a brief mixing by a vortex machine, the tubes were incubated for 30 minutes at 25° C. At the end of the incubation, the tubes were transferred on to ice and immediately four aliquots were transferred from each experimental condition into new tubes (a-d). These tubes were placed into the mixture of acetone/dry ice for fast freezing. Later, the samples were stored at −80° C.
From the remaining solutions, aliquots from each experiment (using triplicates) were diluted 100 times in cell culture medium containing sodium thiosulfate and supplemented with traces of chloroform. Samples were briefly mixed and kept at 4° C. for at least 6 hours before further dilution for the FFID50 infectivity determination. See Example 9.
The experiment above was repeated two more times (altogether: experiments 1-3).
Table 9 presents the result of the inactivation of PPV by BPL for 30 min at 25° C. and subsequent inactivation of the BPL by incubating the BPL-containing PEP solutions with sodium thiosulfate for at least 6 hours at 4° C. As discussed above, three independent experiments with BPL inactivation after PPV spiking were followed by inactivation of BPL by sodium thiosulfate (3 parallels for each experiment).

In the case of O=C1CCO1 [BPL, Beta-propiolactone], the Lipase activity maintained ([1]; lyophilized samples treated with 0.4% BPL and 0.8% BPL) is reported as “maintained the majority”, the “Loss of Lipase Activity” value ([1]; 0.4% BPL 30 min 25° C.) is reported as 19.79% and the “Loss of Lipase Activity” value ([1]; 0.8% BPL 30 min 25° C.) is reported as 26.40%. The “PPV Titer reduction” value ([2]; PEP #1, 0.1% (v/v) BPL) was 2.37 × 10^3 FFID50/g, the “Detected PPV Titer” value ([2]; PEP #1, 0.1% (v/v) BPL) was 4.22 × 10^4 FFID50/g and the “PPV Titer reduction” value ([2]; PEP #1, 0.2% (v/v) BPL) was >10^5 FFID50/g. For the same molecule, the “Detected PPV Titer” value ([2]; PEP #1, 0.2% (v/v) BPL) was < 0* FFID50/g, the “PPV Titer reduction” value ([2]; PEP #1, 0.4% (v/v) BPL) was >10^5 FFID50/g and the “Detected PPV Titer” value ([2]; PEP #1, 0.4% (v/v) BPL) was < 0* FFID50/g. For the same molecule, the “PPV Titer reduction” value ([2]; PEP #1, 0.8% (v/v) BPL) was >10^5 FFID50/g, the “Detected PPV Titer” value ([2]; PEP #1, 0.8% (v/v) BPL) was < 0* FFID50/g and the “PPV Titer reduction” value ([2]; PEP #2, 0.1% (v/v) BPL) was 2.37 × 10^3 FFID50/g. The “Detected PPV Titer” value ([2]; PEP #2, 0.1% (v/v) BPL) was 4.22 × 10^4 FFID50/g, the “PPV Titer reduction” value ([2]; PEP #2, 0.2% (v/v) BPL) was >10^5 FFID50/g and the “Detected PPV Titer” value ([2]; PEP #2, 0.2% (v/v) BPL) was < 0* FFID50/g. The “PPV Titer reduction” value ([2]; PEP #2, 0.4% (v/v) BPL) was >10^5 FFID50/g, the “Detected PPV Titer” value ([2]; PEP #2, 0.4% (v/v) BPL) was < 0* FFID50/g and the “PPV Titer reduction” value ([2]; PEP #2, 0.8% (v/v) BPL) was >10^5 FFID50/g. For the same molecule, the “Detected PPV Titer” value ([2]; PEP #2, 0.8% (v/v) BPL) was < 0* FFID50/g, the “PPV Titer reduction” value ([2]; PEP #3, 0.1% (v/v) BPL) was 4.22 × 10^3 FFID50/g and the “Detected PPV Titer” value ([2]; PEP #3, 0.1% (v/v) BPL) was 5.62 × 10^4 FFID50/g. The “PPV Titer reduction” value ([2]; PEP #3, 0.2% (v/v) BPL) was >10^5 FFID50/g, the “Detected PPV Titer” value ([2]; PEP #3, 0.2% (v/v) BPL) was < 0* FFID50/g and the “PPV Titer reduction” value ([2]; PEP #3, 0.4% (v/v) BPL) was >10^5 FFID50/g. For the same molecule, the “Detected PPV Titer” value ([2]; PEP #3, 0.4% (v/v) BPL) was < 0* FFID50/g, the “PPV Titer reduction” value ([2]; PEP #3, 0.8% (v/v) BPL) was >10^5 FFID50/g and the “Detected PPV Titer” value ([2]; PEP #3, 0.8% (v/v) BPL) was < 0* FFID50/g. For the same molecule, the “PPV Titer reduction” value ([2]; PEP #4, 0.1% (v/v) BPL) was 1.33 × 10^8 FFID50/g, the “Detected PPV Titer” value ([2]; PEP #4, 0.1% (v/v) BPL) was < 0* FFID50/g and the “PPV Titer reduction” value ([2]; PEP #4, 0.2% (v/v) BPL) was >10^5 FFID50/g. The “Detected PPV Titer” value ([2]; PEP #4, 0.2% (v/v) BPL) was < 0* FFID50/g, the “PPV Titer reduction” value ([2]; PEP #4, 0.4% (v/v) BPL) was >10^5 FFID50/g and the “Detected PPV Titer” value ([2]; PEP #4, 0.4% (v/v) BPL) was < 0* FFID50/g. The “PPV Titer reduction” value ([2]; PEP #4, 0.8% (v/v) BPL) was >10^5 FFID50/g, the “Detected PPV Titer” value ([2]; PEP #4, 0.8% (v/v) BPL) was < 0* FFID50/g and the “Average PPV titer (log reduction)” value ([3]; reaction time 15 min) was 1.1 log. The “Average PPV titer (log reduction)” value ([3]; reaction time 30 min) was 1.6 log, the “Average PPV titer (log reduction)” value ([3]; reaction time 45 min) was 2 log and 2.0 log and the “Average PPV titer (log reduction)” value ([3]; reaction time 60 min) was 2.2 log. For the same molecule, the “Average PPV titer (log reduction)” value ([3]; reaction time 720 min) was 4.8 log, the “Mean Infectivity ± SD” value ([4]; 0.4% BPL, 30 min 25° C.) was 2.63 ± 6.86 × 10^4 FFID50/g and the PPV Titer reduction ([4]; 0.4% BPL, 30 min 25° C.) was 0.65 × 10^2 FFID50/g. The “Average Results per Sample” value ([4]; 0.4% BPL, 30 min 25° C., experiments B1-B3) was 2.32 × 10^4 FFID50/g and 2.15 × 10^4 FFID50/g and 3.42 × 10^4 FFID50/g, the “Results (PPV infectivity, single determinations)” value ([4]; 0.4% BPL, 30 min 25° C., experiments B1-B3, 3 parallels each) was 2.50 × 10^4 FFID50/g and 1.98 × 10^4 FFID50/g and 3.14 × 10^4 FFID50/g and 3.96 × 10^4 FFID50/g and the “Reduction of virus infectivity” value ([4]; 0.4 vol % BPL, room temperature, 30 minutes) was “more than 60 times”. The “Mean Infectivity ± SD” value ([4]; 0.8% BPL, 30 min 25° C.) was 5.25 ± 5.25 × 10^3 FFID50/g, the PPV Titer reduction ([4]; 0.8% BPL, 30 min 25° C.) was 0.31 × 10^4 FFID50/g and the “Inactivation of PPV” value ([4]; 0.8% BPL, room temperature, 30 minutes) was “three magnitudes of order”.
